According to ChEMBL document CHEMBL5291721, “A preclinical secondary pharmacology resource illuminates target-adverse drug reaction associations of marketed drugs” (Nat Commun, 2023):

Key:
[1] = molecular target: T1, Alpha-2A adrenergic receptor (Homo sapiens, UniProt P08913)
T1 sequence (P08913 whole entry): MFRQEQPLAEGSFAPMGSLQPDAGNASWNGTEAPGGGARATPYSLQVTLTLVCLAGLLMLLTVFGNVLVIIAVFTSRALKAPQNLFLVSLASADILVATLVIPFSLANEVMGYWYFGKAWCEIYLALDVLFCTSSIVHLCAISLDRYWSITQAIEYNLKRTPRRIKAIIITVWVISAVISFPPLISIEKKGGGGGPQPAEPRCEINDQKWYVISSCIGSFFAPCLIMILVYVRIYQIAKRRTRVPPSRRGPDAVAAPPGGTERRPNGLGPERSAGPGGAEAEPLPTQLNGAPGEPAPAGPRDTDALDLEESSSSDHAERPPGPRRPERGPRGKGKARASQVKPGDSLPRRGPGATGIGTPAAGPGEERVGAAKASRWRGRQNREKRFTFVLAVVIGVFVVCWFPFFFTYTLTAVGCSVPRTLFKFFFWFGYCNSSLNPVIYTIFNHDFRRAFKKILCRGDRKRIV

[2] = molecular target: T2, Muscarinic acetylcholine receptor M2 (Homo sapiens, UniProt P08172)
T2 sequence (P08172 whole entry): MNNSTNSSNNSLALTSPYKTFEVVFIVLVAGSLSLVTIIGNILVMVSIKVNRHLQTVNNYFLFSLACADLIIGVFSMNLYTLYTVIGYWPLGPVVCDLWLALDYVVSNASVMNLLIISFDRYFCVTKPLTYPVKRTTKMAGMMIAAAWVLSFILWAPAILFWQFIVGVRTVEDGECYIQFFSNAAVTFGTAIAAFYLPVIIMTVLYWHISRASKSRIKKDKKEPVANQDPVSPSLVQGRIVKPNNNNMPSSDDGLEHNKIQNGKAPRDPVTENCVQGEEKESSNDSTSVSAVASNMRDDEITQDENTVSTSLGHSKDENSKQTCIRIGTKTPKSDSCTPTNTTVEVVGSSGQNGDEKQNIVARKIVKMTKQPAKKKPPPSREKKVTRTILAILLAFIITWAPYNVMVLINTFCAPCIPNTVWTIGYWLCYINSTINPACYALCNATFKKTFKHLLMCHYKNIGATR

D(1A) dopamine receptor = D(1A) dopamine receptor (Homo sapiens, UniProt P21728)
Histamine H3 receptor = Histamine H3 receptor (Homo sapiens, UniProt Q9Y5N1)
[3] = molecular target: T3, 5-hydroxytryptamine receptor 1A (Homo sapiens, UniProt P08908)
T3 sequence (P08908 whole entry): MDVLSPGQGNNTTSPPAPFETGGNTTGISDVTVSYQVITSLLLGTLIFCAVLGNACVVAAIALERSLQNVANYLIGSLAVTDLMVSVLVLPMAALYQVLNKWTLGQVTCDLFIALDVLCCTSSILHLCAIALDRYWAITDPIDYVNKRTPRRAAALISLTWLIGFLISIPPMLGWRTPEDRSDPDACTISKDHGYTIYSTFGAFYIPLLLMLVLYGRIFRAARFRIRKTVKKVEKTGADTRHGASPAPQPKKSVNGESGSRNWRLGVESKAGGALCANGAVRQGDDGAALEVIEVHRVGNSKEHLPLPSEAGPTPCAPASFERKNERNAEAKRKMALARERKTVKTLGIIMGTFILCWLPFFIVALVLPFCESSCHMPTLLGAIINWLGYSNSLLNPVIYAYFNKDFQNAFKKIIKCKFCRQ

Progesterone receptor = molecular target: T4, Progesterone receptor (Homo sapiens, UniProt P06401)
T4 sequence (P06401 whole entry): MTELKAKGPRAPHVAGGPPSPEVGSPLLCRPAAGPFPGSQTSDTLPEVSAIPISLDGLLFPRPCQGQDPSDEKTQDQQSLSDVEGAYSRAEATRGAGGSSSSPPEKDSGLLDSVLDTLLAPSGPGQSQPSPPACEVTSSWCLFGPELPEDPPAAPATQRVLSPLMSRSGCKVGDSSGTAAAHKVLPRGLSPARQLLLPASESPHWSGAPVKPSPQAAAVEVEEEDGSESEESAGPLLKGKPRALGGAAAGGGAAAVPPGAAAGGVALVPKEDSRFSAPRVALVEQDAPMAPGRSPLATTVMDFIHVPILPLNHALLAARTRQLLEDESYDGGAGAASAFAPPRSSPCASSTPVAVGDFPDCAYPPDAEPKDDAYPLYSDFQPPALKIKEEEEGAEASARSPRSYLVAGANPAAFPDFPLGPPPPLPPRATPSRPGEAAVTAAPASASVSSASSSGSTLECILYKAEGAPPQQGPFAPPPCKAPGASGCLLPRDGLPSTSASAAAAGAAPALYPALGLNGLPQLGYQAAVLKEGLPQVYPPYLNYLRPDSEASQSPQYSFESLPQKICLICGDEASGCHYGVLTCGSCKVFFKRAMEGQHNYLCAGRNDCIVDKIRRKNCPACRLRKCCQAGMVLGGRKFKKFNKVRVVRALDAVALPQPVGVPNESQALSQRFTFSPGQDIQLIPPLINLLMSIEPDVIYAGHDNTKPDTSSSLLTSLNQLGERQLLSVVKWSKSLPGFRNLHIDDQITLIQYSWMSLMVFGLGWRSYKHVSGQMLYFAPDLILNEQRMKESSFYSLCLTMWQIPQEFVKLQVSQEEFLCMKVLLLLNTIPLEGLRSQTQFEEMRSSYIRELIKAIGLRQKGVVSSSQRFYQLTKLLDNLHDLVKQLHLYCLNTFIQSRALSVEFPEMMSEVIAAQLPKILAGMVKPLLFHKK

[4] = molecular target: Sodium-dependent noradrenaline transporter (Homo sapiens, UniProt P23975)
[5] = molecular target: Sodium-dependent serotonin transporter (Homo sapiens, UniProt P31645)
[6] = molecular target: T5, Alpha-1A adrenergic receptor (Homo sapiens, UniProt P35348); assay type: functional, cell-based
T5 sequence (P35348 whole entry): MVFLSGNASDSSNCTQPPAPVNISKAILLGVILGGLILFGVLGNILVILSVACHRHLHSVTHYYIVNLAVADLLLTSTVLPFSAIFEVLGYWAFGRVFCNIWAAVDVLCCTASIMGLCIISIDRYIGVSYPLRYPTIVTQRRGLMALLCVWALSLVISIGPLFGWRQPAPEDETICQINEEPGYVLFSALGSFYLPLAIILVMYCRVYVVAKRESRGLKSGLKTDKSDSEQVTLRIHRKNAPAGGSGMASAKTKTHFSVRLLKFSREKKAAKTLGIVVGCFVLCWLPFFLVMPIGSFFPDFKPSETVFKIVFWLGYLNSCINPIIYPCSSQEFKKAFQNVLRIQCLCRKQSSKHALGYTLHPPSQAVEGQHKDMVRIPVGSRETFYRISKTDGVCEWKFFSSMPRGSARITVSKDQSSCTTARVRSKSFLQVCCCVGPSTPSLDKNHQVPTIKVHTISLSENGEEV
Note: assay procedure not described here.

Sequence of Histamine H3 receptor (Q9Y5N1 whole entry): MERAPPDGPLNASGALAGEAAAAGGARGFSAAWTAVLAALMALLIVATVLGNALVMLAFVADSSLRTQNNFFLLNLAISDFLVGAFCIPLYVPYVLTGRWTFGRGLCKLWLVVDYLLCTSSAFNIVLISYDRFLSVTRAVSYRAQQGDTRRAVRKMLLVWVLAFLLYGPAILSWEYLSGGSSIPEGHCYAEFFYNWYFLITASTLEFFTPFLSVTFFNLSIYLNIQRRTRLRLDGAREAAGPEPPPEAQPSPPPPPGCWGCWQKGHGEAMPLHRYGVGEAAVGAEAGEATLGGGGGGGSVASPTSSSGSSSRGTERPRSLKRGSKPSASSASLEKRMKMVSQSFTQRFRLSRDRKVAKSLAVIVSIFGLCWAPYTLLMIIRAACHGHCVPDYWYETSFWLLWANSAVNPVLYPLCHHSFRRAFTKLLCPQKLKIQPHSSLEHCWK
Sequence of Sodium-dependent noradrenaline transporter (P23975 whole entry): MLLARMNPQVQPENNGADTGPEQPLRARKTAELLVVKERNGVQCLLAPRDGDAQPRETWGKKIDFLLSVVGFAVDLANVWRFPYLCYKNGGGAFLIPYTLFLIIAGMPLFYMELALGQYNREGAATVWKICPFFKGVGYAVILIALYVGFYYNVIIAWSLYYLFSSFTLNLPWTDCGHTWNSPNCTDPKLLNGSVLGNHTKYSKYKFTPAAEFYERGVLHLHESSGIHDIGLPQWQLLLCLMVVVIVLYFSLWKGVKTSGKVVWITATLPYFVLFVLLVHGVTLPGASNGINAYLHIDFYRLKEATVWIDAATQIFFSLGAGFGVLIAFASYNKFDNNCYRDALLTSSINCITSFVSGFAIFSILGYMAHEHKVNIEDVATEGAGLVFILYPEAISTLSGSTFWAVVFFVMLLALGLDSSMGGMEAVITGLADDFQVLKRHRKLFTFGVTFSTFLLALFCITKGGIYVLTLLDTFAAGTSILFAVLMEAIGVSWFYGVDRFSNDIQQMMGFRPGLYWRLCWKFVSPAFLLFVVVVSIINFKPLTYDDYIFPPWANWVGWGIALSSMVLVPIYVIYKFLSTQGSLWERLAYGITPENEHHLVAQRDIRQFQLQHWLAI
Sequence of D(1A) dopamine receptor (P21728 whole entry): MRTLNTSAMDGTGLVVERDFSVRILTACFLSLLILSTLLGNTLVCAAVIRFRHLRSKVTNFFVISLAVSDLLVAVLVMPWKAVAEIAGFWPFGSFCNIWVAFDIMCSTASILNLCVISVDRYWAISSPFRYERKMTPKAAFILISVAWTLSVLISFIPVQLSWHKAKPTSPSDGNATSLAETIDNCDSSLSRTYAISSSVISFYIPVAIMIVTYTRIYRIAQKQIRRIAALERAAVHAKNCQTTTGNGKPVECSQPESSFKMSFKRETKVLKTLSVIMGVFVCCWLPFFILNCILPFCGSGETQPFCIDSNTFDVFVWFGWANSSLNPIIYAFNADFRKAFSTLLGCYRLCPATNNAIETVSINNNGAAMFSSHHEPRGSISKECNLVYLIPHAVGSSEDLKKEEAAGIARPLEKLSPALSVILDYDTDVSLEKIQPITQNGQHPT
Sequence of Sodium-dependent serotonin transporter (P31645 whole entry): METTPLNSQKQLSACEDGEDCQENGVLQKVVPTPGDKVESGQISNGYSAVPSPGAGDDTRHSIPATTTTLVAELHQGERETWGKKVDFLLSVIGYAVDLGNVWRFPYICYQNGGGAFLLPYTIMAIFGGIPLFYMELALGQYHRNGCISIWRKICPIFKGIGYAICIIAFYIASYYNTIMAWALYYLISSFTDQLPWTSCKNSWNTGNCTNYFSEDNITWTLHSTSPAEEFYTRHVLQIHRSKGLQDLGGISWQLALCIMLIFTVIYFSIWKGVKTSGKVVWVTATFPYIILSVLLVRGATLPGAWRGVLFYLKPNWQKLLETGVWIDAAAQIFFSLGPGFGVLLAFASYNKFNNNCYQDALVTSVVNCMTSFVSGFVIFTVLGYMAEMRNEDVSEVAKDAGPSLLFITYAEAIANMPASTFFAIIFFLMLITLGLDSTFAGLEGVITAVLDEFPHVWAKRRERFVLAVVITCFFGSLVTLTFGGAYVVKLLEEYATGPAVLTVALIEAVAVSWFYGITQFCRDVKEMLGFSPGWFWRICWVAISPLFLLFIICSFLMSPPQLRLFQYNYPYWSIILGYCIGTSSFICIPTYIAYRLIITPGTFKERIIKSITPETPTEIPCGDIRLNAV

Compound	AC50 [1] [µM]	AC50 [2] [µM]	AC50 (D(1A) dopamine receptor) [µM]	AC50 (Histamine H3 receptor) [µM]	AC50 [3] [µM]	AC50 (Progesterone receptor) [µM]	AC50 [4] [µM]	AC50 [5] [µM]	AC50 [6] [µM]
CO/N=C(\C(=O)N[C@@H]1C(=O)N2C(C(=O)OCOC(=O)C(C)(C)C)=C(C)CS[C@H]12)c1csc(N)n1	> 30	> 30	> 30	> 30	> 30	> 30	> 30	> 30	–
Cc1c(O)cccc1C(=O)N[C@@H](CSc1ccccc1)[C@H](O)CN1C[C@H]2CCCC[C@H]2C[C@H]1C(=O)NC(C)(C)C	> 30	> 30	–	> 30	> 30	> 30	18.2	–	> 30
O=C(Cn1ccnc1[N+](=O)[O-])NCc1ccccc1 [BENZNIDAZOLE]	> 30	> 30	> 30	> 30	> 30	> 30	> 30	> 30	–
CN(Cc1cc(Br)cc(Br)c1N)C1CCCCC1 [BROMHEXINE]	> 30	> 30	> 30	> 30	> 30	> 30	22	–	> 30
CN1CCN(C(c2ccccc2)c2ccccc2)CC1 [CYCLIZINE]	3.47	0.334	14.4	> 30	> 30	> 30	> 30	–	> 30
C[C@@H]1C[C@H]2[C@@H]3CCC4=CC(=O)C=C[C@]4(C)[C@@]3(F)[C@@H](O)C[C@]2(C)[C@H]1C(=O)CO [DESOXIMETASONE]	> 30	> 30	> 30	> 30	> 30	0.0331	> 30	–	> 30
CC1=NN(c2ccccc2)C(=O)C1 [EDARAVONE]	> 30	26.5	> 30	> 30	> 30	> 30	> 30	–	> 30
Oc1c(I)cc(I)c2cccnc12 [IODOQUINOL]	> 30	> 10	> 30	> 30	> 10	> 30	0.874	–	> 30
CC(=O)O[C@]1(C(C)=O)CC[C@H]2[C@@H]3C[C@H](C)C4=CC(=O)CC[C@]4(C)[C@H]3CC[C@@]21C [MEDROXYPROGESTERONE ACETATE]	> 30	21.2	> 30	> 30	> 30	–	> 30	–	> 30
Cn1cc[nH]c1=S [METHIMAZOLE]	> 30	> 30	> 30	> 30	> 30	> 30	> 30	–	> 30
CO[C@@]12[C@H](COC(N)=O)C3=C(C(=O)C(C)=C(N)C3=O)N1C[C@@H]1N[C@@H]12 [MITOMYCIN]	> 30	> 30	> 30	> 30	> 30	> 30	> 30	–	> 30
Oc1cccc2cccnc12 [OXYQUINOLINE]	> 30	> 30	> 30	> 30	> 30	> 30	> 30	–	> 30
Nc1nc2c(ncn2CCC(CO)CO)c(=O)[nH]1 [PENCICLOVIR]	> 30	> 30	> 30	> 30	> 30	> 30	> 30	–	> 30
O=C1CCC(N2C(=O)c3ccccc3C2=O)C(=O)N1 (stereo not given) [THALIDOMIDE]	> 30	14.8	> 30	> 30	> 30	> 30	> 30	–	> 30
